Laboratory results taken from patent US8883856B2, “Compositions and methods for the treatment of inflammatory diseases using topoisomerase inhibitors” (priority 2000, dated 2014).
Where two headings read alike, the source gives them in different places.

Legend:
caspase 3 = experiment: Caspase 3 activation in neutrophils (caspACE assay system); assay type: cell-based, human
Source text: The inflammation associated with many forms of arthritis is thought to arise from the presence of large numbers of immune cells, such as neutrophils, in the synovial joints of humans. The extended inflammation associated with crystal induced arthritis arises from the interaction of neutrophils with crystals in the synovial joint. One reason the extended duration of the inflammation in this disease may be due to the inhibition of neutrophil apoptosis by crystals. This inhibition may result in the neutrophils remaining in the joint for extended periods. Compounds that overcome this crystal induced suppression of neutrophil apoptosis therefore allow the more rapid clearance of these cells from the joint with the appropriate abatement of inflammation. The process of apoptosis involves the endonuclease driven cleavage of DNA into fragments which may be visualized as a ladder of bands in an agarose gel electrophoresis experiment. Other assays that may be used include caspase 3 quantitation or measurements of cytoplasmic DNA concentration. […] Agents that inhibit caspase activation levels or reduce cytoplasmic DNA are pro-survival (potentially inflammatory) and agents that promote are pro-apoptotic and anti-inflammatory. The use of these methods and their role in neutrophil affected inflammation is described in detail in Tudan et al. J Rheumatol. 27 p 2463-72. 2000.
Methods: Agarose gel banding/laddering of 180 base pairs: Neutrophils were separated from fresh human blood by standard methods (dextran sedimentation and ficoll paque centrifugation) and suspended in buffer at a concentration of 1×10^6 cells/ml. The cells were then incubated with crystals of calcium pyrophosphate dihydrate (CPPD) for 1 hours at 37° C. The cells were then incubated with or without camptothecin (0.1 uM) for 4 hours at 37° C. Neutrophil aliquots (1×10^6 cells) from different conditions were resuspended in 480 μl of lysis buffer (0.6% SDS, 10 mM Tris, 1 mM EDTA (pH 7.0)) and after vigorous mixing were allowed to sit on ice for 20 min after addition of 120 μl of 5M NaCl. In caspase 3 and DNA fragmentation assays a milder detergent (Triton) was used to lyse only the plasma membrane of the cells so that cytoplasmic contents (caspase 3 or DNA fragments) could be assayed. Samples were sedimented at 14,000 rpm at 4° C. for 20 min. The pellet was dried and resuspended in phenol:chloroform. Four hundred fifty μl of the upper phase was added to a new tube, which was then charged with 950 μl of […] and held at −20° C. for 10 min. The DNA was sedimented at 14,000 rpm (4° C.) and carefully washed in 75% ethanol without disturbing the pellet. The DNA was dried at 37° C. and then resuspended in 20 μl sample buffer (50% TBE with 1 μl of 1 ng/ml RNase A (Pharmacia)). The samples were vortexed and allowed to stand at 37° C. for 10 min. Five μl of loading dye (20% Ficoll Paque (Pharmacia), 0.1% bromophenol blue, 0.1% xylene cyanole) was added. Electrophoresis was carried out in 2% agarose at 80 mA, and the gel was then stained with ethidium bromide (Pharmacia) and photographed under U.V. illumination.
Caspase 3 activation was assayed using a commercial kit for this enzyme (caspACE assay system, Promega Scientific) and cyotplasmic DNA was assayed using a commercial kit (Cell death detection ELISA-Boehringer—Mannheim).

proteoglycan gene = experiment: Proteoglycan gene expression in chondrocytes; assay type: cell-based, calf
Source text: This assay measures the levels of RNA for the two metalloproteinases, collagenase and stromelysin. Over-expression of these genes results in excessive synthesis and secretion of these two enzymes from articular chondrocytes and may represent part of the pathophysiology of rheumatoid arthritis. Agents that inhibit over-expression of collagenase and stromelysin can be antiarthritc agents. […] Proteoglycan gene expression is part of the normal physiology of chondrocytes.
Primary chondrocyte culture was freshly isolated from calf cartilage. The cells were plated (at 2.5×10^6/mL) in 100×20 mm culture dishes and incubated in Ham's F12 medium containing 5% fetal bovine serum (FBS) overnight at 37° C. The cells were starved with serum-free medium overnight. The cells were pretreated with camptothecin at concentrations of 10^−6 M, 10^−7 M and 10^−8 M for 6 hours. Then IL-1 (20 ng/mL) was added to each plate and the plates were incubated for an additional 18 hours. Total RNA was isolated by the acidified guanidine isothiocyanate method and subjected to electrophoresis on a denatured gel. Denatured RNA samples (15 ug) were analyzed by gel electrophoresis in a 1% denaturing gel, transferred to a nylon membrane, and hybridized respectively with the ^32P-labelled collagenase cDNA probe, ^32P-labelled stromelycin cDNA probe, ^32P-labelled proteoglycan cDNA probe and ^32P-labelled glyceraldehyde phosphate dehydrogenase (PAGDH) cDNA. The PAGDH levels acted as an internal standard to ensure roughly equal loading. The experimental results on X-ray films were scanned and analyzed with HP ScanJet.

SMILES: CC1(C)CCC2=C(O1)c1ccccc1C(=O)C2=O [beta-lapachone]
- caspase 3 activation in neutrophils (caspase 3): induced an increase in the activation of caspase 3 levels
- proteoglycan expression (proteoglycan gene): without excessive inhibition

SMILES: CC[C@@]1(O)C(=O)OCc2c1cc1n(c2=O)Cc2cc3ccccc3nc2-1 [camptothecin]
- caspase 3 activation in neutrophils (caspase 3): induced high levels of caspase 3 activation
- proteoglycan expression (proteoglycan gene; 1×10^−7 M): without excessive inhibition

SMILES: COc1cccc2c1C(=O)c1c(O)c3c(c(O)c1C2=O)C[C@@](O)(C(=O)CO)C[C@@H]3O[C@H]1C[C@H](N)[C@H](O)[C@H](C)O1 [doxorubicin]
- caspase 3 activation in neutrophils (caspase 3): induced an increase in the activation of caspase 3 levels

SMILES: COc1cc([C@@H]2c3cc4c(cc3[C@@H](O[C@@H]3O[C@@H]5CO[C@@H](C)O[C@H]5[C@H](O)[C@H]3O)[C@H]3COC(=O)[C@H]23)OCO4)cc(OC)c1O [etoposide]
- caspase 3 activation in neutrophils (caspase 3): induced an increase in the activation of caspase 3 levels

SMILES: CC1=CC(=O)c2ccccc2C1=O [menadione]
- proteoglycan expression (proteoglycan gene): without excessive inhibition
